Measurements reported in patent publication US8871753B2, “Macrocyclic compounds and their use as kinase inhibitors” (Incyte Corporation, priority 2008, dated 2014).
Where a name gives a salt, the structure may show the parent alone. Read-outs that look alike come from different tables or passages of the source.

Columns and labels:
Type in all cases: biochemical
TYK2 = TYK2 (Homo sapiens, UniProt P29597); assay: TYK2 kinase inhibition (Table A1)
[1] = target: T1, human JAK2 (a.a. 828-1132) (Homo sapiens, UniProt O60674); assay: In vitro JAK kinase assay (HTRF, phosphorylation of a biotinylated peptide), JAK2
T1 construct: JAK2 (a.a. 828-1132); His tag (N); made in house; host or cells: insect cells (baculovirus)
How it was run: (§1)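 Kinase reactions ran at room temperature for 1 h with ATP matched per isoform (JAK1 90 μM, JAK2 30 μM, JAK3 3 μM). After an EDTA stop, the phosphorylated biotin-peptide was read by HTRF using Eu-Py20 and SA-APC after 40 min binding.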

[2] = target: T2, human JAK3 (a.a. 781-1124) (Homo sapiens, UniProt P52333); assay: In vitro JAK kinase assay (HTRF, phosphorylation of a biotinylated peptide), JAK3
T2 construct: JAK3 (a.a. 781-1124); His tag (N); made in house; host or cells: insect cells (baculovirus)
How it was run: as §1

[3] = target: T3, Recombinant Human Anaplastic Lymphoma Kinase (Homo sapiens, UniProt Q9UM73); assay: ALK HTRF kinase assay
T3 construct: purchased Invitrogen, Carlsbad, Calif
How it was run: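 Recombinant human ALK phosphorylated a biotinylated synthetic peptide. Phosphotyrosine was detected by TR-FRET between a Eu-labelled anti-phosphotyrosine antibody and streptavidin-allophycocyanin. IC50 values came from fitting signal against inhibitor concentration to a four-parameter logistic equation with variable Hill slope.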

[4] = target: T4, human JAK1 (a.a. 837-1142) (Homo sapiens, UniProt P23458); assay: In vitro JAK kinase assay (HTRF, phosphorylation of a biotinylated peptide), JAK1; conditions: read-out: JAK1 IC50
T4 construct: human JAK1 (a.a. 837-1142); His tag (N); made in house; host or cells: insect cells (baculovirus)
How it was run: as §1

[5] = Table B1, cells without percent sign
[6] = method AA1 (30 μM ATP) or AA2 (1000 μM ATP), not stated per value
[7] = method AA1 (3 μM ATP) or AA2 (1000 μM ATP), not stated per value
[8] = compound at 500 nM or 1 mM, 90 μM ATP
[9] = method AA1 (90 μM ATP) or AA2 (1000 μM ATP), not stated per value

T4 sequence (P23458 849-1154): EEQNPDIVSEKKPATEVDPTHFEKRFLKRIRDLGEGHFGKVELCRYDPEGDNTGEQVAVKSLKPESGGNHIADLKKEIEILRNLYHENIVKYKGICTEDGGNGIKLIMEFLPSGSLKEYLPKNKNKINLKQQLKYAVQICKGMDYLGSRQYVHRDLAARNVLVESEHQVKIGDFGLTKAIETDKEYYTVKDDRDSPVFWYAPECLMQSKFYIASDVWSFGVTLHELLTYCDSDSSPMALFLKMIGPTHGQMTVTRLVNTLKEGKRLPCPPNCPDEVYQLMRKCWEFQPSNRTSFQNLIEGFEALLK
T2 sequence (P52333 781-1124): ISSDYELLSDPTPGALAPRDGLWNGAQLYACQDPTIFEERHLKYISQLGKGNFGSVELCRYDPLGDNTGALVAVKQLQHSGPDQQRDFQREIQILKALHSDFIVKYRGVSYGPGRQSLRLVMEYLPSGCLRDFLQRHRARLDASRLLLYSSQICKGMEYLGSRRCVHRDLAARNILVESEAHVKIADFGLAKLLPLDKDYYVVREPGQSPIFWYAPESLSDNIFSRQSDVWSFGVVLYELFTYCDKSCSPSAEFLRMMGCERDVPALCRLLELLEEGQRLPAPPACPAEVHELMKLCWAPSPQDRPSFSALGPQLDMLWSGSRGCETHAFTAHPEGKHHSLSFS
T1 sequence (O60674 828-1132): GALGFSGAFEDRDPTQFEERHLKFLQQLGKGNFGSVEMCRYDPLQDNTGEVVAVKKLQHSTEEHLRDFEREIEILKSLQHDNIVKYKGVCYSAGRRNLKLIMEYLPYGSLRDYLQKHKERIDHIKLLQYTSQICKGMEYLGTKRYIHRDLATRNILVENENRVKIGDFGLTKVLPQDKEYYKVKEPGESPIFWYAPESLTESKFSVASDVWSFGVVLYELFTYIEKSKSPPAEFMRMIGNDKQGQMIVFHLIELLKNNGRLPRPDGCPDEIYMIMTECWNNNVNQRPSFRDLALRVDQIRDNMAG
T3 sequence (Q9UM73 19-1620): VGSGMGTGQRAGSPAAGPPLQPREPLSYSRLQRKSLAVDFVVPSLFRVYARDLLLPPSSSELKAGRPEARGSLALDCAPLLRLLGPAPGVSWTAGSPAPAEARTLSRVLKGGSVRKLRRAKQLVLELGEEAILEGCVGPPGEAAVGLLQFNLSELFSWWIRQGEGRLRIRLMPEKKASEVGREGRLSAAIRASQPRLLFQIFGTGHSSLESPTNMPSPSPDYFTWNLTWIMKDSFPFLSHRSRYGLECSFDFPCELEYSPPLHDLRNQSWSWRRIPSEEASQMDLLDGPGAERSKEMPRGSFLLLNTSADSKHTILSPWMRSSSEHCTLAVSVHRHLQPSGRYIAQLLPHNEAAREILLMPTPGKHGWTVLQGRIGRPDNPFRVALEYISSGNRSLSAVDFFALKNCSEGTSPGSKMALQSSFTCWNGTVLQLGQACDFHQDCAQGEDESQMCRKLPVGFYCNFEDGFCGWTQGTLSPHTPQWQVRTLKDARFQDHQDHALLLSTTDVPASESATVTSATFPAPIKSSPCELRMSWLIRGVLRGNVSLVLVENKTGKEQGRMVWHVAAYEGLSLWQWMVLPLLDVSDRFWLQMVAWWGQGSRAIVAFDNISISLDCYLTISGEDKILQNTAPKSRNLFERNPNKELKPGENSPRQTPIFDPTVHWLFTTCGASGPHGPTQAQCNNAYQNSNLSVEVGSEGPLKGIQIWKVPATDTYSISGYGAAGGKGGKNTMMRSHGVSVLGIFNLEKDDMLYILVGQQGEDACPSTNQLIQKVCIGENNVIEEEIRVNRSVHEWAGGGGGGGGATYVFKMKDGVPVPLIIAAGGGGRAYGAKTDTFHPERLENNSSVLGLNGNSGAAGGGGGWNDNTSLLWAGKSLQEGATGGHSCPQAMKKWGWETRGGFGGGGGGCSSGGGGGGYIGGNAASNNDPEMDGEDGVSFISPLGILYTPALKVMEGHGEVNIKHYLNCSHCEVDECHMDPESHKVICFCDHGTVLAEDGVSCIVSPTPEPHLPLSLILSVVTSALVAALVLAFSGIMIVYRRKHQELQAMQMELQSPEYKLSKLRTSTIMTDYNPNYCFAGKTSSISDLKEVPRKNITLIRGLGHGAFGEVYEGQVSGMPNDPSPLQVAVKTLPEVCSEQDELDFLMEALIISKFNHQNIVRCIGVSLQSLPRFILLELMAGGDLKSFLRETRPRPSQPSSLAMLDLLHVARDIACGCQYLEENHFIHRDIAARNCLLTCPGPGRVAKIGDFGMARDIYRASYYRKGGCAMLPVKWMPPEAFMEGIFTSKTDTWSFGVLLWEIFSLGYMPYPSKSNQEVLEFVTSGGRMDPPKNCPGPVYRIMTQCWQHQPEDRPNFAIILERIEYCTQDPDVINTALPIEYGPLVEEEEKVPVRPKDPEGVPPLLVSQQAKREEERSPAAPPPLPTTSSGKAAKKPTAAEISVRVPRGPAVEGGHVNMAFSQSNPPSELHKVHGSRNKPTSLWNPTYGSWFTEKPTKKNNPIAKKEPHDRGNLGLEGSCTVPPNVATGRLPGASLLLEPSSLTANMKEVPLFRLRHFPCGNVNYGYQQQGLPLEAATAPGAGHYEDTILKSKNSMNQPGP
Sequence of TYK2 (P29597 whole entry): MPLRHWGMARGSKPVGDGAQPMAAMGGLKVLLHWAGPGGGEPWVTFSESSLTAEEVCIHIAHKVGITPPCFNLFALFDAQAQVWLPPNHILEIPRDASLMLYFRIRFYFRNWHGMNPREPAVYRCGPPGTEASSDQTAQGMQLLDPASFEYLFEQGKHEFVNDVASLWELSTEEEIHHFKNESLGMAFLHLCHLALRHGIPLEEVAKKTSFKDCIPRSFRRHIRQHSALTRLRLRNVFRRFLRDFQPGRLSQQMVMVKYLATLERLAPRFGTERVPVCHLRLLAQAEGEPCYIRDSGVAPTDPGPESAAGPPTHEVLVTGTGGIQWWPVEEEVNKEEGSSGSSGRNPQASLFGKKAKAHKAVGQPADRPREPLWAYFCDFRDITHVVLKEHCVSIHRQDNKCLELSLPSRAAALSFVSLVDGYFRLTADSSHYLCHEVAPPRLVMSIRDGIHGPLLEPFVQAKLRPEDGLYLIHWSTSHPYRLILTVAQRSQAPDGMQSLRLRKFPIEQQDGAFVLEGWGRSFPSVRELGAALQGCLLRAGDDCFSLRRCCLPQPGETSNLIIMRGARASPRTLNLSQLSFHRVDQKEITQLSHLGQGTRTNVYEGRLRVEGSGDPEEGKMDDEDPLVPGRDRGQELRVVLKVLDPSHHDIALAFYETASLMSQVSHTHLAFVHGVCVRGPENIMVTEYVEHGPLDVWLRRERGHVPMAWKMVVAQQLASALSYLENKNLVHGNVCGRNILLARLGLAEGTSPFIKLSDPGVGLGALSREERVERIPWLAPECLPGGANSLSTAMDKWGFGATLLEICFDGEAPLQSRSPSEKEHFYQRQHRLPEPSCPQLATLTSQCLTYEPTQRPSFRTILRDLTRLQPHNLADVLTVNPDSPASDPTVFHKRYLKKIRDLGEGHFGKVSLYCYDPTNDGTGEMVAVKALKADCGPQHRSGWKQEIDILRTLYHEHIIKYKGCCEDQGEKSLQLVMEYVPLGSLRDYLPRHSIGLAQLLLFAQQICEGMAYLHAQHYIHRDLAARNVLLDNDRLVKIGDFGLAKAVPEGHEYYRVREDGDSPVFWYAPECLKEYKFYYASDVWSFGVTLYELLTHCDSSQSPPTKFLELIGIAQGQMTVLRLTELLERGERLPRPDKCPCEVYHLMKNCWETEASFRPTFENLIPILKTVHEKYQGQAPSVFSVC

IC50 (TYK2; Table B1)	IC50 ([1]; Table B1)	IC50 ([2]; Table B1)	IC50 ([4]; Table B1)	IC50 (TYK2)	IC50 [1, 6]	IC50 [2, 7]	ALK % of inhibition at a concentration of 500 nM or 1 mM [3, 8]	IC50 [4, 9]	SMILES	further results
0.205 µM	0.056 µM	0.101 µM	0.036 µM	–	–	–	–	–	O=C(Nc1ccccc1)Nc1cc2cc(c1)Nc1nc(ncc1Cl)Nc1cccc(c1)CC2 [Example B202, N-[6-Chloro-2,4,8,22-tetraazatetracyclo[14.3.1.1(3,7).1(9,13)]docosa-1(20),3(22),4,6,9(21),10,12,16,18-nonaen-11-yl]-N′-phenylurea trifluoroacetate]	IC50 [3, 5]: 3.6 µM
0.15 µM	0.057 µM	0.084 µM	0.209 µM	–	–	–	–	–	Cn1cncc1C(=O)Nc1cc2cc(c1)Nc1nc(ncc1Cl)Nc1cccc(c1)CC2 [Example B208, N-[6-Chloro-2,4,8,22-tetraazatetracyclo[14.3.1.1(3,7).1(9,13)]docosa-1(20),3(22),4,6,9(21),10,12,16,18-nonaen-11-yl]-1-methyl-1H-imidazole-5-carboxamide trifluoroacetate]	IC50 [3, 5]: > 1 µM
0.0033 µM	0.00091 µM	0.0047 µM	0.0027 µM	–	–	–	–	–	Cn1cncc1C(=O)Nc1ccc2cc1CCc1cccc(c1)Nc1ncc(Cl)c(n1)N2 [Example B51, N-[6-Chloro-2,4,8,22-tetraazatetracyclo[14.3.1.1(3,7).1(9,13)]docosa-1(20), 3(22),4,6,9(21),10,12,16,18-nonaen-12-yl]-1-methyl-1H-imidazole-5-carboxamide bis(trifluoroacetate)]	IC50 [3, 5]: 0.3 µM
0.02 µM	0.0077 µM	0.073 µM	0.0052 µM	–	–	–	–	–	Cc1cccc(NC(=O)Nc2ccc3cc2CCc2cccc(c2)Nc2ncc(Cl)c(n2)N3)c1 [Example B90, N-[6-Chloro-2,4,8,22-tetraazatetracyclo[14.3.1.1(3,7).1(9,13)]docosa-1(20), 3(22),4,6,9(21),10,12,16,18-nonaen-12-yl]-N′-(3-methylphenyl)urea trifluoroacetate]	IC50 [3, 5]: > 1 µM
0.0069 µM	0.0034 µM	0.0078 µM	0.003 µM	–	–	–	–	–	CCCS(=O)(=O)NCCNC(=O)Nc1ccc2cc1CCc1cccc(c1)Nc1ncc(Cl)c(n1)N2 [Example B326, N-{2-[({[6-Chloro-2,4,8,22-tetraazatetracyclo[14.3.1.1(3,7).1(9,13)]docosa-1(20),3(22),4,6,9(21),10,12,16,18-nonaen-12-yl]amino}carbonyl)amino]ethyl}propane-1-sulfonamide trifluoroacetate]	ALK % of inhibition at a concentration of 500 nM or 1 mM ([3]; percentage inhibition of the example compound at a concentration of 500 nM or 1 mM (not specified which)): 19%
0.288 µM	0.085 µM	0.376 µM	0.044 µM	–	–	–	–	–	O=C(Nc1cccc(N2CCOCC2)n1)Nc1ccc2cc1CCc1cccc(c1)Nc1ncc(Cl)c(n1)N2 [Example B133, N-[6-Chloro-2,4,8,22-tetraazatetracyclo[14.3.1.1(3,7).1(9,13)]docosa-1(20), 3(22),4,6,9(21),10,12,16,18-nonaen-12-yl]-N′-(6-morpholin-4-ylpyridin-2-yl)urea bis(trifluoroacetate)]	ALK % of inhibition at a concentration of 500 nM or 1 mM ([3]; compound at a concentration of 500 nM or 1 mM (not specified), cells shown as percentage): 2.5%

Further lines, the compound ahead of its results:

SMILES	IC50 (TYK2; Table B1)	IC50 ([1]; Table B1)	IC50 ([2]; Table B1)	IC50 ([4]; Table B1)	IC50 (TYK2)	IC50 [1, 6]	IC50 [2, 7]	ALK % of inhibition at a concentration of 500 nM or 1 mM [3, 8]	IC50 [4, 9]	further results
COc1cc(C(=O)N2CCC(CC(=O)Nc3ccc4cc3CCc3cncc(c3)Nc3ncc(Cl)c(n3)N4)CC2)on1 [Example A215, N-[6-Chloro-2,4,8,18,22-pentaazatetracyclo[14.3.1.1(3,7).1(9,13)]docosa-1(20),3(22),4,6,9(21),10,12,16,18-nonaen-12-yl]-2-{1-[(3-methoxyisoxazol-5-yl)carbonyl]piperidin-4-yl}acetamide bis(trifluoroacetate)]	–	–	–	–	0.16 µM	0.185 µM	> 0.2 µM	32%	0.016 µM	–
CC(=O)N1CC[C@@H](C(=O)Nc2ccc3cc2CCc2cccc(c2)Nc2ncc(Cl)c(n2)N3)C1 [Example A51, (3R)-1-Acetyl-N-[6-chloro-2,4,8,22-tetraazatetracyclo[14.3.1.1(3,7).1(9,13)]docosa-1(20),3(22),4,6,9(21),10,12,16,18-nonaen-12-yl]pyrrolidine-3-carboxamide trifluoroacetate]	–	–	–	–	0.021 µM	0.005 µM	0.01 µM	30%	0.013 µM	–
N#Cc1ccccc1N1CCC(CC(=O)Nc2ccc3cc2CCc2cncc(c2)Nc2ncc(Cl)c(n2)N3)CC1 [Example A220, N-[6-Chloro-2,4,8,18,22-pentaazatetracyclo[14.3.1.1(3,7).1(9,13)]docosa-1(20),3(22),4,6,9(21),10,12,16,18-nonaen-12-yl]-2-[1-(2-cyanophenyl)piperidin-4-yl]acetamide tris(trifluoroacetate)]	–	–	–	–	0.19 µM	0.18 µM	> 0.2 µM	18%	0.013 µM	–
CS(=O)(=O)N1CCN(c2ccc(-c3cc4cc(c3)Nc3ncc(Cl)c(n3)Nc3cccc(c3)OCC4)cn2)CC1 [Example D38, 6-Chloro-19-{6-[4-(methylsulfonyl)piperazin-1-yl]pyridin-3-yl}-14-oxa-2,4,8,23-tetraazatetracyclo[15.3.1.1(3,7).1(9,13)]tricosa-1(21),3(23),4,6,9(22),10,12,17,19-nonaene bis(trifluoroacetate)]	–	–	–	–	–	–	–	–	–	IC50 (TYK2; Table D1): 0.004 µM; IC50 ([1]; Table D1): 0.0009 µM; IC50 ([2]; Table D1): 0.019 µM; IC50 ([3]; Table D1, 90 μM ATP): 0.442 µM; IC50 ([4]; Table D1): 0.0011 µM
N#Cc1ccc(C(=O)N2CCC(C(=O)Nc3ccc4cc3CCc3cccc(c3)Nc3ncc(Cl)c(n3)N4)CC2)cc1 [Example A33, N-[6-Chloro-2,4,8,22-tetraazatetracyclo[14.3.1.1(3,7).1(9,13)]docosa-1(20), 3(22),4,6,9(21),10,12,16,18-nonaen-12-yl]-1-(4-cyanobenzoyl)piperidine-4-carboxamide trifluoroacetate]	–	–	–	–	0.075 µM	0.038 µM	0.102 µM	26%	0.03 µM	–
N#Cc1ccc(C(F)(F)F)cc1N1CCC(CC(=O)Nc2ccc3cc2CCc2cncc(c2)Nc2ncc(Cl)c(n2)N3)CC1 [Example A237, N-[6-Chloro-2,4,8,18,22-pentaazatetracyclo[14.3.1.1(3,7).1(9,13)]docosa-1(20),3(22),4,6,9(21),10,12,16,18-nonaen-12-yl]-2-{1-[2-cyano-5-(trifluoromethyl)phenyl]piperidin-4-yl}acetamide tris(trifluoroacetate)]	–	–	–	–	> 0.4 µM	> 0.4 µM	> 0.4 µM	5.9%	0.09 µM	–
Clc1cnc2nc1Nc1cccc(c1)/C=C\c1cccc(c1)N2 [Example A1, (14Z)-6-Chloro-2,4,8,22-tetraazatetracyclo[14.3.1.1(3,7).1(9,13)]docosa-1(20),3(22),4,6,9(21),10,12,14,16,18-decaene trifluoroacetate]	–	–	–	–	0.0047 µM	0.0027 µM	0.0085 µM	–	0.006 µM	IC50 ([3]; 90 μM ATP): 0.415 µM
Clc1cnc2nc1Nc1cccc(c1)CNCc1cccc(c1)N2 [Example D73, 6-Chloro-2,4,8,15,23-pentaazatetracyclo[15.3.1.1(3,7).1(9,13)]tricosa-1(21),3(23),4,6,9(22),10,12,17,19-nonaene bis(trifluoroacetate)]	–	–	–	–	–	–	–	–	–	IC50 (TYK2; Table D1): 0.191 µM; IC50 ([1]; Table D1): 0.106 µM; IC50 ([2]; Table D1): 0.067 µM; IC50 ([3]; Table D1, 90 μM ATP): 1.33 µM; IC50 ([4]; Table D1): 0.083 µM
